The values that follow come from US20230416256A1, “SMALL MOLECULE INHIBITORS OF NF-kB INDUCING KINASE” (Janssen Pharmaceutica NV, priority 2020, published 2023).

What is called IC50 is the concentration at which inhibition is half-maximal.

The structures appear in SMILES notation. Like-named read-outs stand apart in the source and are kept apart here.

Experiment [1] relates to p-IKKα levels in L363 (NIK translocated multiple myeloma) cells. Nature of the experiment: Effect of compounds on p-IKKα levels in L363 cells (AlphaLISA SureFire Ultra). Type of experiment: cell-based, human. The conditions noted are these: 250 ng/ml BAFF stimulated, 10 μM MG132, 6 h, average of values obtained, read-out: Assay 2 IC50. An outline of the steps:
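L363 cells were BAFF-stimulated overnight (250 ng/ml) in DMEM/0.5% BSA, then exposed to an 11-point 1:3 compound series (0.3% DMSO) with BAFF and 10 μM MG132 for 6 h at 37 °C. p-IKKα (Ser176/180) was measured by AlphaLISA SureFire Ultra. IC50 was fitted from % inhibition normalized to stimulated and unstimulated controls.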
(In Alpha technology, singlet oxygen from a donor bead excites a nearby acceptor bead.)

In experiment [2] the target is recombinant human NF-kappaB-inducing kinase (NIK/MAP3K14) (Homo sapiens, UniProt Q99558). Nature of the experiment: Inhibition of auto-phosphorylation of recombinant human NIK/MAP3K14 activity (AlphaScreen). The note with it: GST-tagged NIK/MAP3K14 1 nM, 5 μM ATP, 2 h at 25° C.; average of values obtained. Type of experiment: biochemical. An outline of the steps: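 GST-tagged NIK (1 nM) auto-phosphorylated for 2 h at 25 °C with 5 μM ATP in 50 mM Tris pH 7.5, 5 mM MgCl2, 0.7% DMSO. Phospho-Ser176/180 was detected by AlphaScreen using an anti-phospho-IKK antibody. IC50 came from sigmoidal fits of % inhibition versus high (full activity) and low (no ATP) controls.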
Sequence of recombinant human NF-kappaB-inducing kinase (NIK/MAP3K14) (Q99558 whole entry): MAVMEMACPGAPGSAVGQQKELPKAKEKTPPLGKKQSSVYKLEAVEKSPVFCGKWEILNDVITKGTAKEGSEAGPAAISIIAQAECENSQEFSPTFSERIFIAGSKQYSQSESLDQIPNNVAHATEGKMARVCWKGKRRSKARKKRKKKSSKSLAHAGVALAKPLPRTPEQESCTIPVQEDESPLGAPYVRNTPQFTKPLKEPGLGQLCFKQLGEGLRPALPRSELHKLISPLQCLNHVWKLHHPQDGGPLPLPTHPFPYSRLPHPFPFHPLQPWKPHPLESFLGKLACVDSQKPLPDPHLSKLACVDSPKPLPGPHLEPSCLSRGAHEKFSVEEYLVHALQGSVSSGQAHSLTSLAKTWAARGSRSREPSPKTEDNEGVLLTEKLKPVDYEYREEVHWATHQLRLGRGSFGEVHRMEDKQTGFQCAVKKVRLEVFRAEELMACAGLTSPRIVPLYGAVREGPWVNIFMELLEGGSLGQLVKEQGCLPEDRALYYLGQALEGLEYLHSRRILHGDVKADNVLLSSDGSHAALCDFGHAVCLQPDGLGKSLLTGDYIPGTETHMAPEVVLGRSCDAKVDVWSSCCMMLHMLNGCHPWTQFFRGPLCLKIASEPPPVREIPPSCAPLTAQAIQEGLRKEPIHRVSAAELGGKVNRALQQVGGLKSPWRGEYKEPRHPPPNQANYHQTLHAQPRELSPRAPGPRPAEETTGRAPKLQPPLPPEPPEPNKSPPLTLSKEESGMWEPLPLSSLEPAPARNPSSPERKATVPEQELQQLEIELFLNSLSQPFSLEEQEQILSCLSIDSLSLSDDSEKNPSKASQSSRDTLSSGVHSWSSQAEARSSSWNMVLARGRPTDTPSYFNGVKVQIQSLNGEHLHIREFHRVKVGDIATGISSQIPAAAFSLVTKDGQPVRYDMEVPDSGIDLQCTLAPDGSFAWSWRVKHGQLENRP

For `O[C@]1(c2cccc(-c3csc(-c4c[nH]c5ncncc45)n3)c2)CCn2ccnc21` [Example 21, (S)-7-(3-(2-(7H-Pyrrolo[2,3-d]pyrimidin-5-yl)thiazol-4-yl)phenyl)-6,7-dihydro-5H-pyrrolo[1,2-a]imidazol-7-ol], the half-maximal inhibitory concentration (IC50) in experiment [1] (Homo sapiens, L-363, 6 h) is over 500 nM; in experiment [2], 100 to 500 nM.
For `O[C@@]1(c2cccc(-c3csc(-c4c[nH]c5nccnc45)n3)c2)COc2cccnc21` [Example 17, (R)-3-(3-(2-(5H-Pyrrolo[2,3-b]pyrazin-7-yl)thiazol-4-yl)phenyl)-2,3-dihydrofuro[3,2-b]pyridin-3-ol], the 50% inhibitory concentration (IC50) in experiment [1] and in experiment [2] was at most 100 nM each time.
Take `C[C@](O)(c1cccc(-c2csc(-c3c[nH]c4ncccc34)n2)c1)c1ccccn1` (single isomer, unassigned) [Example 61]: the IC50 is over 500 nM in experiment [1] (Homo sapiens, L-363, 6 h) and over 500 nM in experiment [2].
